Test results taken from patent publication US10894798B2, “Substituted dihydropyrrolopyrazole derivative” (UBE INDUSTRIES, LTD., priority 2015, dated 2021).
pIC50, pKi: −log10 of the molar value.

Columns and labels:
[1] = biological target: T1, PLK1 (Homo sapiens, UniProt P53350); assay: PLK1 enzyme (polo-like kinase) inhibition test; type: biochemical; details: [γ-33P]ATP, casein substrate; Ki=IC50/(1+S/Km); read-out: Ki value of PLK1 inhibitory activity
T1 construct: purchased Carna Biosciences, Inc. 05-157
T1 sequence (P53350 whole entry): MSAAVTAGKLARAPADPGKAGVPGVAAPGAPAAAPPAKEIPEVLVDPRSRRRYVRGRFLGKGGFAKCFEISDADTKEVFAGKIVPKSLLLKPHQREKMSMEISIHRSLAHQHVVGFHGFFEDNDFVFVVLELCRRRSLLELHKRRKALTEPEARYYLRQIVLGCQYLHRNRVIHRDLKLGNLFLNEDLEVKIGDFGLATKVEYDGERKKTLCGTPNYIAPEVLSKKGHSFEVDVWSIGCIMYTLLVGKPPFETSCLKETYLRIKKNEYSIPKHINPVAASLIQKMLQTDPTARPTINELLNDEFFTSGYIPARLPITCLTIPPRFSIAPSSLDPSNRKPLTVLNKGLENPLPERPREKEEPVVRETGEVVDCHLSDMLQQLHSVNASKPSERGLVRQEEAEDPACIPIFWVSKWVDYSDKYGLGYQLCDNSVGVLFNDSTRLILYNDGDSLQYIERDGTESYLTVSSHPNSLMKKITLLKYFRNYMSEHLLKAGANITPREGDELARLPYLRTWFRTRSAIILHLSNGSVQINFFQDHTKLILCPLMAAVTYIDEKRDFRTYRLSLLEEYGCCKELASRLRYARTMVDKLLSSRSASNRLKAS
Method in brief: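 Recombinant PLK1 phosphorylates casein with [γ-^33P]ATP in MOPS buffer (pH 7.0) containing DTT and magnesium acetate, 20 min at 30° C. Reaction stopped with TCA; washed precipitate counted by liquid scintillation. IC50 for inhibition of ^33P incorporation into casein, converted to Ki via Ki=IC50/(1+S/Km).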

[2] = biological target: T2, CDK2 (Homo sapiens, UniProt P24941); assay: CDK2 enzyme inhibition test; type: biochemical; details: [γ-33P]ATP, MBP substrate; Ki=IC50/(1+S/Km); read-out: Ki value of CDK2 inhibitory activity
T2 construct: purchased Invitrogen Corp. PV3267
Method in brief: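 Commercial CDK2 phosphorylated MBP with [γ-33P]ATP (500 μM solution before mixing) in HEPES pH 7.4 buffer with DTT, Triton X-100 and MgCl2 for 20 min at 30 °C. TCA-precipitated 33P-MBP was counted by scintillation to give the IC50. Ki = IC50/(1+S/Km), with S the ATP concentration in the reaction.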

[3] = tested on: IL-17 production; assay: Human PBMC various-stimulant cocktail-induced IL-17 production inhibition test; type: cell-based; details: 120 h, human T-cell suspension from PBMC, culture for 5 days, ELISA
Excerpt: PBMC was separated and collected by using Ficoll-Paque (manufactured by GE Healthcare Japan Corp.) from blood collected from a healthy human adult in the presence of heparin. The collected PBMC was further cultured in a flask for a certain time, and then, non-adherent cells in the supernatant were collected and used as a T-cell suspension.
A RPMI1640 medium containing 10% FBS, 1% penicillin/streptomycin/amphotericin B, essential amino acids, and pyruvic acid and containing a test compound dissolved in DMSO, a human CD28 antibody, a human IFN-γ antibody, a human IL-4 antibody, human IL-6, human IL-23, human IL-1β, and human TGF-β was added at 100 μL/well to T cell Activation Plate Anti-Human CD3 96-well plate. Subsequently, 100 μL of a T-cell suspension adjusted to 2×10^5 cells/mL was added to each well (final DMSO concentration: 0.1%). Only DMSO was added to wells not supplemented with the test compound. After culture for 5 days in a carbon dioxide incubator, the culture supernatant was collected and stored at −20° C. until IL-17 content measurement.
In the measurement of an IL-17 content in the culture supernatant, a sandwich ELISA kit (Quantikine Human IL-17, manufactured by R&D Systems, Inc.) was used. The IL-17 content of each sample was calculated from the calibration curve of Standard IL-17 included in the kit. […] The concentration of the test compound necessary for inhibiting 50% of IL-17 production (IC50 value) was calculated from the concentration of the added test compound and the rate of inhibition of IL-17 production by the test compound by using EXSUS (version 8.1.0, manufactured by CAC Exicare Corp.).

SMILES	pKi [1]	pKi [2]	pIC50 [3]
CC1(C)c2[nH]nc(NC(=O)C3([Si](C)(C)C)CCC3)c2CN1C(=O)Nc1ccccc1F [IV-3, N-(2-Fluorophenyl)-6,6-dimethyl-3-[1-(trimethylsilyl)cyclobutanecarboxamido]-4,6-dihydropyrrolo[3,4-c]pyrazole-5(1H)-carboxamide]	≤ 5.30	≤ 6.00	≥ 7.00
CC1(C)c2[nH]nc(NC(=O)C3([Si](C)(C)C)CCC3)c2CN1C(=O)Nc1ccccc1Br [IV-15, N-(2-Bromophenyl)-6,6-dimethyl-3-[1-(trimethylsilyl)cyclobutanecarboxamido]-4,6-dihydropyrrolo[3,4-c]pyrazole-5(1H)-carboxamide]	≤ 5.30	≤ 6.00	
Cc1ccccc1NC(=O)N1Cc2c(NC(=O)C3([Si](C)(C)C)CCC3)n[nH]c2C1(C)C [IV-21, 6,6-Dimethyl-N-(o-tolyl)-3-[1-(trimethylsilyl)cyclobutanecarboxamido]-4,6-dihydropyrrolo[3,4-c]pyrazole-5(1H)-carboxamide]	≤ 5.30	≤ 6.00	
CC1(C)c2[nH]nc(NC(=O)C3([Si](C)(C)C)CCC3)c2CN1C(=O)Nc1c(F)cccc1Cl [IV-113, N-(2-Chloro-6-fluorophenyl)-6,6-dimethyl-3-[1-(trimethylsilyl)cyclobutanecarboxamido]-4,6-dihydropyrrolo[3,4-c]pyrazole-5(1H)-carboxamide]	≤ 5.30	≤ 6.00	
Cc1ccc(F)c(NC(=O)N2Cc3c(NC(=O)C4([Si](C)(C)C)CCC4)n[nH]c3C2(C)C)c1 [IV-127, N-(2-Fluoro-5-methylphenyl)-6,6-dimethyl-3-[1-(trimethylsilyl)cyclobutanecarboxamido]-4,6-dihydropyrrolo[3,4-c]pyrazole-5 (1H)-carboxamide]	≤ 5.30	≤ 6.00	
Cc1cccc(F)c1NC(=O)N1Cc2c(NC(=O)C3([Si](C)(C)C)CCC3)n[nH]c2C1(C)C [IV-129, N-(2-Fluoro-6-methylphenyl)-6,6-dimethyl-3-[1-(trimethylsilyl)cyclobutanecarboxamido]-4,6-dihydropyrrolo[3,4-c]pyrazole-5 (1H)-carboxamide]	≤ 5.30	≤ 6.00	≥ 7.00
CCc1cccc(F)c1NC(=O)N1Cc2c(NC(=O)C3([Si](C)(C)C)CCC3)n[nH]c2C1(C)C [IV-137, N-(2-Ethyl-6-fluorophenyl)-6,6-dimethyl-3-[1-(trimethylsilyl)cyclobutanecarboxamido]-4,6-dihydropyrrolo[3,4-c]pyrazole-5(1H)-carboxamide]	≤ 5.30	≤ 6.00	≥ 7.00
COc1cccc(F)c1NC(=O)N1Cc2c(NC(=O)C3([Si](C)(C)C)CCC3)n[nH]c2C1(C)C [IV-161, N-(2-Fluoro-6-methoxyphenyl)-6,6-dimethyl-3-[1-(trimethylsilyl)cyclobutanecarboxamido]-4,6-dihydropyrrolo[3,4-c]pyrazole-5(1H)-carboxamide]	≤ 5.30	≤ 6.00	
CC1(C)c2[nH]nc(NC(=O)C3([Si](C)(C)C)CCC3)c2CN1C(=O)Nc1c(F)cccc1OC(F)F [IV-169, N-[2-(Difluoromethoxy)-6-fluorophenyl]-6,6-dimethyl-3-[1-(trimethylsilyl)cyclobutanecarboxamido]-4,6-dihydropyrrolo[3,4-c]pyrazole-5(1H)-carboxamide]	≤ 5.30	≤ 6.00	
CC1(C)c2[nH]nc(NC(=O)C3([Si](C)(C)C)CCC3)c2CN1C(=O)Nc1c(Cl)cccc1Cl [IV-199, N-(2,6-Dichlorophenyl)-6,6-dimethyl-3-[1-(trimethylsilyl)cyclobutanecarboxamido]-4,6-dihydropyrrolo[3,4-c]pyrazole-5(1H)-carboxamide]	≤ 5.30	≤ 6.00	≥ 7.00
Cc1cccc(Cl)c1NC(=O)N1Cc2c(NC(=O)C3([Si](C)(C)C)CCC3)n[nH]c2C1(C)C [IV-215, N-(2-Chloro-6-methylphenyl)-6,6-dimethyl-3-[1-(trimethylsilyl)cyclobutanecarboxamido]-4,6-dihydropyrrolo[3,4-c]pyrazole-5 (1H)-carboxamide]	≤ 5.30	≤ 6.00	≥ 7.00
COc1cccc(Cl)c1NC(=O)N1Cc2c(NC(=O)C3([Si](C)(C)C)CCC3)n[nH]c2C1(C)C [IV-247, N-(2-Chloro-6-methoxyphenyl)-6,6-dimethyl-3-[1-(trimethylsilyl)cyclobutanecarboxamido]-4,6-dihydropyrrolo[3,4-c]pyrazole-5(1H)-carboxamide]	≤ 5.30	≤ 6.00	≥ 7.00
Cc1cccc(Br)c1NC(=O)N1Cc2c(NC(=O)C3([Si](C)(C)C)CCC3)n[nH]c2C1(C)C [IV-299, N-(2-Bromo-6-methylphenyl)-6,6-dimethyl-3-[1-(trimethylsilyl)cyclobutanecarboxamido]-4,6-dihydropyrrolo[3,4-c]pyrazole-5 (1H)-carboxamide]	≤ 5.30	≤ 6.00	≥ 7.00
Cc1cc(F)ccc1NC(=O)N1Cc2c(NC(=O)C3([Si](C)(C)C)CCC3)n[nH]c2C1(C)C [IV-359, N-(4-Fluoro-2-methylphenyl)-6,6-dimethyl-3-[1-(trimethylsilyl)cyclobutanecarboxamido]-4,6-dihydropyrrolo[3,4-c]pyrazole-5 (1H)-carboxamide]	≤ 5.30	≤ 6.00	
Cc1ccc(F)cc1NC(=O)N1Cc2c(NC(=O)C3([Si](C)(C)C)CCC3)n[nH]c2C1(C)C [IV-361, N-(5-Fluoro-2-methylphenyl)-6,6-dimethyl-3-[1-(trimethylsilyl)cyclobutanecarboxamido]-4,6-dihydropyrrolo[3,4-c]pyrazole-5 (1H)-carboxamide]	≤ 5.30	≤ 6.00	≥ 7.00
Cc1ccc(C)c(NC(=O)N2Cc3c(NC(=O)C4([Si](C)(C)C)CCC4)n[nH]c3C2(C)C)c1 [IV-379, N-(2,5-Dimethylphenyl)-6,6-dimethyl-3-[1-(trimethylsilyl)cyclobutanecarboxamido]-4,6-dihydropyrrolo[3,4-c]pyrazole-5(1H)-carboxamide]	≤ 5.30	≤ 6.00	≥ 7.00
CCc1cccc(C)c1NC(=O)N1Cc2c(NC(=O)C3([Si](C)(C)C)CCC3)n[nH]c2C1(C)C [IV-389, N-(2-Ethyl-6-methylphenyl)-6,6-dimethyl-3-[1-(trimethylsilyl)cyclobutanecarboxamido]-4,6-dihydropyrrolo[3,4-c]pyrazole-5 (1H)-carboxamide]	≤ 5.30	≤ 6.00	≥ 7.00
CC1(C)c2[nH]nc(NC(=O)C3([Si](C)(C)C)CCC3)c2CN1C(=O)Nc1c(F)ccc(F)c1F [IV-597, 6,6-Dimethyl-N-(2,3,6-trifluorophenyl)-3-[1-(trimethylsilyl)cyclobutanecarboxamido]-4,6-dihydropyrrolo[3,4-c]pyrazole-5(1H)-carboxamide]	≤ 5.30	≤ 6.00	
Cc1ccc(C)c(NC(=O)N2Cc3c(NC(=O)C4([Si](C)(C)C)CCC4)n[nH]c3C2(C)C)c1F [IV-669, N-(2-Fluoro-3,6-dimethylphenyl)-6,6-dimethyl-3-[1-(trimethylsilyl)cyclobutanecarboxamido]-4,6-dihydropyrrolo[3,4-c]pyrazole-5(1H)-carboxamide]	≤ 5.30	≤ 6.00	≥ 7.00
CC1(C)c2[nH]nc(NC(=O)C3([Si](C)(C)C)CCC3)c2CN1C(=O)Nc1c(F)ccc2ccoc12 [IV-1049, N-(6-Fluorobenzofuran-7-yl)-6,6-dimethyl-3-[1-(trimethylsilyl)cyclobutanecarboxamido]-4,6-dihydropyrrolo[3,4-c]pyrazole-5 (1H)-carboxamide]	≤ 5.30	≤ 6.00	≥ 7.00
CC1(C)c2[nH]nc(NC(=O)C3([Si](C)(C)C)CCC3)c2CN1C(=O)Nc1c(F)ccc2cc(Cl)oc12 [IV-1063, N-(2-Chloro-6-fluorobenzofuran-7-yl)-6,6-dimethyl-3-[1-(trimethylsilyl)cyclobutanecarboxamido]-4,6-dihydropyrrolo[3,4-c]pyrazole-5(1H)-carboxamide]	≤ 5.30	≤ 6.00	
